Read-outs that look alike come from different tables or passages of the source.
Experiments:
[1] = Solution stability of didanosine as a function of pH (stomach degradation model, Acid Neutralization Rate Test); assay type: physicochemical; conditions: water with hcl; pH 5, 37° C., 1/2 hour
[2] = 37° C., cited from earlier work

OC[C@@H]1CC[C@H](n2cnc3c(O)ncnc32)O1 [Didanosine, 2',3'-Dideoxyinosine]
degraded at 0.5 h [1]: < 4% | t90 ([2]; pH 7.4): 16 days | t90 ([2]; pH 9.5): 509 days | t90 ([2]; pH <3): < 0.0014 days

Source: patent US5880106A, “Oral dosing formulations of dideoxy purine nucleosides” (Bristol-Myers Squibb Company, priority 1997, dated 1999)
